What was measured:
PDGFRβ = target: T1, PDGFRβ (Homo sapiens, UniProt P09619); assay: PAE-PDGFRβ phosphorylation in PAE-PDGFRB cells assay; format: cell-based; settings: PAE cells overexpressing human PDGFRβ, PDGF-BB stimulated; read-out: PAE PDGFR autophos IC50 (nM) AVG
T1 construct: expressed in transfected cells; host or cells: porcine aorta endothelial (PAE)-PDGFRβ cells
Summary of the method: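 Inhibition of PDGF-BB-induced (1 μg/mL, 8 min, with 2 mM vanadate) PDGFRβ autophosphorylation in porcine aortic endothelial cells expressing the human receptor. Cells were starved 16 h and pretreated with compound 1 h at 37 °C. Lysates were captured with anti-PDGFRβ and probed with HRP-PY20 at 450 nm; four-parameter IC50.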

Mouse PK assay = format: in vivo; settings: 50 mg/kg, B6 female mice, plasma; for AUC / Cmax: mouse, po
Procedure: The pharmacokinetics (e.g., absorption and elimination) of drugs in mice were analyzed using the following experiment. Test compounds were formulated as a suspension in a 30:70 (PEG 400:acidified H2O) vehicle. This solution was administered orally (p.o.) and intraperitoneally (i.p.) at 50 mg/kg to two distinct groups (n=4) of B6 female mice. Blood samples were collected via an orbital bleed at time points: 0 hour (pre-dose), 0.5 hr, 1.0 hr, 2.0 hr, and 4.0 hr post dose. Plasma was obtained from each sample by centrifugation at 2500 rpm for 5 min. Test compound was extracted from the plasma by an organic protein precipitation method. For each time bleed, 50 μL of plasma was combined with 1.0 mL of acetonitrile, vortexed for 2 min. and then spun at 4000 rpm for 15 min. to precipitate the protein and extract out the test compound. Next, the acetonitrile supernatant (the extract containing test compound) was poured into new test tubes and evaporated on a hot plate (25° C.) under a steam of N2 gas. To each tube containing the dried test compound extract, 125 μL of mobile phase (60:40, 0.025 M NH4H2PO4+2.5 mL/L TEA:acetonitrile) was added. The test compound was resuspended in the mobile phase by vortexing and more protein was removed by centrifugation at 4000 rpm for 5 min. Each sample was poured into an HPLC vial for test compound analysis on an Hewlett Packard 1100 series HPLC with UV detection. From each sample, 95 μL was injected onto a Phenomenex-Prodigy reverse phase C-18, 150×3.2 mm column and eluted with a 45–50% acetonitrile gradient run over 10 min. Test-compound plasma concentrations (μg/mL) were determined by a comparison to standard curve (peak area vs. conc. μg/mL) using known concentrations of test compound extracted from plasma samples in the manner described above. Along with the standards and unknowns, three groups (n=4) of quality controls (0.25 μg/mL, 1.5 μg/mL, and 7.5 μg/mL) were run to insure the consistency of the analysis. […] The quantitated test samples were plotted for visual display using Kalidagraph software and their pharmacokinetic parameters were determined using WIN NONLIN software.

T1 sequence (P09619 33-1106): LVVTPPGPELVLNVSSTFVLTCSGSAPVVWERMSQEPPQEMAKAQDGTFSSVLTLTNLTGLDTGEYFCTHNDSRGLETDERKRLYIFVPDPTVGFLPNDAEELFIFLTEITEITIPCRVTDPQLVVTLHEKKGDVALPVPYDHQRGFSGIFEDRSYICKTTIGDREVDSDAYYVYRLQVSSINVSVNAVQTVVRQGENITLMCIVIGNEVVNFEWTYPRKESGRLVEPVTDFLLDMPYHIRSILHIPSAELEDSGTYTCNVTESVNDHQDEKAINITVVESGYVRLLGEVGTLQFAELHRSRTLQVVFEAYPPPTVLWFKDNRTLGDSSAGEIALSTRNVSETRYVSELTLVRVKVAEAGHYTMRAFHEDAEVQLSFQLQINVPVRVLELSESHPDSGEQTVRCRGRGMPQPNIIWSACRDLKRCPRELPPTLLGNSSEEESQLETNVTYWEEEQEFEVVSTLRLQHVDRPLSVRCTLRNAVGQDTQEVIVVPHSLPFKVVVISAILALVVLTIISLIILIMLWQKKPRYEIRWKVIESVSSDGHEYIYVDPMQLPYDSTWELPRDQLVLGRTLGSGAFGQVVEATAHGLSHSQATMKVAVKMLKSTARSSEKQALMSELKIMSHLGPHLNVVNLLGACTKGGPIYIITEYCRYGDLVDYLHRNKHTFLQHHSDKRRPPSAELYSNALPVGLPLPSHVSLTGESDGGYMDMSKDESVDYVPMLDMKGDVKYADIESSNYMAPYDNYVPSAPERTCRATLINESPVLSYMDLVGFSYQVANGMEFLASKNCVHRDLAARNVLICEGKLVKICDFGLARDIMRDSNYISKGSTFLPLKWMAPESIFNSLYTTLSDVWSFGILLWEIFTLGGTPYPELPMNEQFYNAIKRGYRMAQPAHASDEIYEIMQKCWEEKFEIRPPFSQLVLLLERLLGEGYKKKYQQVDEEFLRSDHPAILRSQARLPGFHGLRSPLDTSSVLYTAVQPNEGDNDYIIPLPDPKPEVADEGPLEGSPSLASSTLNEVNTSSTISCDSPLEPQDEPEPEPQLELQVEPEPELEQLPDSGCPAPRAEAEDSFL

Cc1c(C(=O)NC2CC2)c2ccc(Oc3ccnc4cc(-c5nccn5C)sc34)cc2n1C [Example 20, 1,2-Dimethyl-6-[2-(1-methyl-1H-imidazol-2-yl)-thieno[3,2-b]pyridin-7-yloxy]-1H-indole-3-carboxylic acid cyclopropylamide] gave an IC50 (PDGFRβ) of 43 nM.

For CCCNC(=O)c1c(C)n(C)c2cc(Oc3ccnc4cc(-c5nccn5C)sc34)ccc12 [Example 61, 1,2-Dimethyl-6-[2-(1-methyl-1H-imidazol-2-yl)thieno[3,2-b]pyridin-7-yloxy]-1H-indole-3-carboxylic acid propylamide], the IC50 (PDGFRβ) was 17.8 nM.

In the case of CNC(=O)c1c(C)n(C)c2cc(Oc3ccnc4cc(C(=O)N5CC[C@@H](O)C5)sc34)ccc12 [Example 19, 1,2-dimethyl-6-(2-[3-hydroxy-pyrrolidine-1-carbonyl]thieno[3,2-b]pyridin-7-yloxy)-1H-indole-3-carboxylic acid methylamide], the “mouse Cmin, po” value (Mouse PK assay) is reported as 4 ng/mL, the AUC (Mouse PK assay) is reported as 120 ng·h/mL and the Cmax (Mouse PK assay) is reported as 51 ng/mL. For the same compound, the IC50 (PDGFRβ) was 172 nM.

With CNC(=O)c1c(C)n(C)c2cc(Oc3ccnc4cc(C(=O)N5CC[C@@H](OC)C5)sc34)ccc12 [Example 18, 1,2-dimethyl-6-(2-[3-methoxy-pyrrolidine-1-carbonyl]thieno[3,2-b]pyridin-7-yloxy)-1H-indole-3-carboxylic acid methylamide] the “mouse Cmin, po” value (Mouse PK assay) was 342 ng/mL, the AUC (Mouse PK assay) was 8720 ng·h/mL and the Cmax (Mouse PK assay) was 4120 ng/mL. For the same compound, the IC50 (PDGFRβ) was 32 nM.

Work on CCCCNC(=O)c1c(C)n(C)c2cc(Oc3ccnc4cc(-c5nccs5)sc34)ccc12 [Example 62, 1,2-Dimethyl-6-(2-thiazol-2-yl-thieno[3,2-b]pyridin-7-yloxy)-1H-indole-3-carboxylic acid butylamide] yielded an IC50 (PDGFRβ) of 18.7 nM.

In the case of CNC(=O)c1c(C)sc2cc(Oc3ccnc4cc(C(=O)N5CC[C@@H](OC)C5)sc34)ccc12 [Example 4, 6-(2-[(R)-3-methoxypyrrolidine-1-carbonyl]thieno[3,2-b]pyridin-7-yloxy)-2-methylbenzo[b]thiophene-3-carboxylic acid methylamide], the “mouse Cmin, po” value (Mouse PK assay) is reported as 200 ng/mL, the AUC (Mouse PK assay) is reported as 7670 ng·h/mL and the Cmax (Mouse PK assay) is reported as 2340 ng/mL. It also gave an IC50 (PDGFRβ) of 284 nM.

With CNC(=O)c1c(C)n(C)c2cc(Oc3ccnc4cc(-c5nccn5C)sc34)ccc12 [Example 17, 1,2-dimethyl-6-(2-[1-methyl-1H-imidazol-2-yl]thieno[3,2-b]pyridin-7-yloxy)-1H-indole-3-carboxylic acid methylamide] the “mouse Cmin, po” value (Mouse PK assay) was 2334 ng/mL, the AUC (Mouse PK assay) was 71600 ng·h/mL and the Cmax (Mouse PK assay) was 28800 ng/mL. For the same compound, the IC50 (PDGFRβ) was 20 nM.

With CNC(=O)c1c(C)oc2cc(Oc3ccnc4cc(-c5nccn5C)sc34)ccc12 [Example 13] the “mouse Cmin, po” value (Mouse PK assay) was 1700 ng/mL, the AUC (Mouse PK assay) was 63000 ng·h/mL and the Cmax (Mouse PK assay) was 24800 ng/mL. The IC50 (PDGFRβ) was 41 nM.

With CNC(=O)c1c(C)sc2cc(Oc3ccnc4cc(-c5nccn5C)sc34)ccc12 [Example 1, 2-methyl-6-(2-[1-methyl-1H-imidazol-2-yl]thieno[3,2-b]pyridin-7-yloxy)benzo[b]thiophene-3-carboxylic acid methylamide] the “mouse Cmin, po” value (Mouse PK assay) was 2793 ng/mL, the AUC (Mouse PK assay) was 183000 ng·h/mL and the Cmax (Mouse PK assay) was 125000 ng/mL. For the same compound, the IC50 (PDGFRβ) was 164 nM.

For CNC(=O)c1c(C)sc2cc(Oc3ccnc4cc(C(=O)N5CCC[C@H]5CO)sc34)ccc12 [Example 3], the “mouse Cmin, po” value (Mouse PK assay) was 66 ng/mL, the AUC (Mouse PK assay) was 2450 ng·h/mL and the Cmax (Mouse PK assay) was 956 ng/mL. For the same compound, the IC50 (PDGFRβ) was 756 nM.

In the case of CNC(=O)c1c(C)sc2cc(Oc3ccnc4cc(C(=O)N5CC[C@@H](O)C5)sc34)ccc12 [Example 6, 6-(2-[(R)-3-hydroxypyrrolidine-1-carbonyl]thieno[3,2-b]pyridin-7-yloxy)-2-methylbenzo[b]thiophene-3-carboxylic acid methylamide], the “mouse Cmin, po” value (Mouse PK assay) is reported as 20 ng/mL, the AUC (Mouse PK assay) is reported as 586 ng·h/mL and the Cmax (Mouse PK assay) is reported as 355 ng/mL. The IC50 (PDGFRβ) was 255 nM.

With CNC(=O)c1c(C)sc2cc(Oc3ccnc4cc(C(=O)N5CCC[C@H]5COC)sc34)ccc12 [Example 2, 6-(2-[(S)-2-(methoxymethyl)pyrrolidine-1-carbonyl]thieno[3,2-b]pyridin-7-yloxy)-2-methylbenzo[b]thiophene-3-carboxylic acid methylamide] the IC50 (PDGFRβ) was 912 nM.

With CNC(=O)c1c(C)oc2cc(Oc3ccnc4cc(C(=O)N5CC[C@@H](OC)C5)sc34)ccc12 [Example 12, 6-(2-[3-methoxypyrrolidine-1-carbonyl]thieno[3,2-b]pyridin-7-yloxy)-2-methylbenzofuran-3-carboxylic acid methylamide] the “mouse Cmin, po” value (Mouse PK assay) was 270 ng/mL, the AUC (Mouse PK assay) was 12000 ng·h/mL and the Cmax (Mouse PK assay) was 5420 ng/mL. The IC50 (PDGFRβ) was 14.4 nM.

— patent US7045528B2, “Benzofused heterozryl amide derivatives of thienopyridines useful as therapeutic agents, pharmaceutical compositions including the same, and methods for their use” (Agouron Pharmaceuticals, Inc., priority 2002, dated 2006)
